Data set [1] in a line: Octanol-water partition coefficient (log D7.4). The data set is classed as physicochemical. As to conditions: PBS pH 7.4 / n-octanol, 177Lu-labelled. On the procedure:
Octanol-Water Partition Coefficient (log D7.4)
Approximately 1 MBq of the labelled tracer was dissolved in 1 mL of a 1:1 mixture (v/v) of PBS (pH 7.4) and n-octanol in a reaction vial (1.5 mL). After vigorous mixing of the suspension for 3 minutes at room temperature, the vial was centrifuged at 15000 g for 3 minutes (Biofuge 15, Heraus Sepatech, Osterode, Germany) and 100 μL aliquots of both layers were measured in a gamma counter. The experiment was repeated at least six times.

The target of data set [2] is T1, PSMA (Homo sapiens, UniProt Q04609).
T1 construct: PSMA-positive LNCAP cells (300265; Cell Lines Service, Eppelheim, Germany); host or cells: LNCaP cells
As to the kind of experiment: PSMA affinity (IC50), competition with [125I]I-BA-KuE on LNCaP cells. The data set is classed as binding. As to conditions: natLu complex, on ice 60 min, read-out: IC50. On the procedure: A mixture of trypsin and EDTA (0.05%, 0.02%) in PBS (Biochrom) was used in order to harvest cells. Cells were counted with a Neubauer hemocytometer (Paul Marienfeld, Lauda-Königshofen, Germany).
Affinity Determinations (IC50)
In the case of metal-complexed ligands, the crude reaction mixture was diluted analogously, without further purification. Cells were harvested 24±2 hours prior to the experiment and seeded in 24-well plates (1.5×10^5 cells in 1 mL/well). […] The media of both steps were combined in one fraction and represent the amount of free radioligand. Afterwards, the cells were lysed with 250 μL of 1 M aqueous NaOH for at least 10 min. After a washing step (250 μL of 1 M NaOH), both fractions, representing the amount of bound ligand, were united. Quantification of all collected fractions was accomplished in a γ-counter. PSMA-affinity determinations were carried out at least three times per ligand.

Data set [3] has as its system LNCaP cells. As to the kind of experiment: Internalization studies in LNCaP cells. As to conditions: 37° C., 60 min. It is filed as cell-based. As to the method: PSMA-positive LNCAP cells (300265; Cell Lines Service, Eppelheim, Germany) were cultivated in Dulbecco modified Eagle medium/Nutrition Mixture F-12 with Glutamax (1:1) (DMEM-F12, Biochrom, Berlin, Germany) supplemented with fetal bovine serum (10%, FBS Zellkultur, Berlin, Germany) and kept at 37° C. in a humidified CO2 atmosphere (5%). A mixture of trypsin and EDTA (0.05%, 0.02%) in PBS (Biochrom) was used in order to harvest cells. Cells were counted with a Neubauer hemocytometer (Paul Marienfeld, Lauda-Königshofen, Germany).
For internalization studies, LNCaP cells were harvested 24±2 hours before the experiment and seeded in poly-L-lysine coated 24-well plates (1.25×10^5 cells in 1 mL/well, Greiner Bio-One, Kremsmünster, Austria). After removal of the culture medium, the cells were washed once with 500 μL DMEM-F12 (5% BSA) and left to equilibrate for at least 15 min at 37° C. in […] DMEM-F12 (5% BSA). Each well was treated with either 25 μL of either DMEM-F12 (5% BSA, control) or 25 μL of a 100 μM PMPA (2-(Phosphonomethyl)-pentandioic acid, Tocris Bioscience, Bristol, UK) solution in PBS, for blockade. Next, 25 μL of the radioactive-labelled PSMA inhibitor (10.0 nM in DMEM-F12 (5% BSA)) was added and the cells were incubated at 37° C. for 60 min. The experiment was terminated by placing the 24-well plate on ice for 3 min and consecutive removal of the medium. Each well was carefully washed with 250 μL of ice-cold HBSS. Both fractions from the first steps, representing the amount of free radioligand, were combined. Removal of surface bound activity was accomplished by incubation of the cells with 250 μL of ice-cold PMPA (10 μM in PBS) solution for 5 min and rinsed again with another 250 μL of ice-cold PBS. The internalized activity was determined by incubation of the cells in 250 μL […] aqueous NaOH for at least 10 min. The obtained fractions were combined with those of the subsequent wash step with 250 μL 1 M aqueous NaOH. Each experiment (control and blockade) was performed in triplicate. Free, surface bound and internalized activity was quantified in a y-counter. All internalization studies were accompanied by external reference studies, using ([^125I]I-BA)KuE (c=0.2 nM), which were performed analogously. Data were corrected for non-specific binding and normalized to the specific-internalization observed for the radioiodinated reference compound.

For data set [4], the target named is T2, Human Serum Albumin (HSA) (Homo sapiens, UniProt P02768).
T2 construct: purchased Daicel H13H-2433
The data set is described as follows: Human serum albumin (HSA) binding by high performance affinity chromatography (HPAC). It is filed as in vitro ADME. As to conditions: Chiralpak HSA column. As to the method:
Determination of Human Serum Albumin (HSA) Binding by High Performance Affinity Chromatography (HPAC)
HSA binding of the PSMA-addressing ligands was determined according to a previously published procedure via HPLC (Valko, K.; Nunhuck, S.; Bevan, C.; Abraham, M. H.; Reynolds, D. P. Journal of pharmaceutical sciences 2003, 92, 2236-2248). A Chiralpak HSA column (50×3 mm, 5 μm, H13H-2433, Daicel, Tokyo, Japan) was used at a constant flow rate of 0.5 mL/min at rt. Mobile phase A was a freshly prepared 50 mM aqueous solution of NH4OAc (pH 6.9) and mobile phase B was isopropanol (HPLC grade, VWR). The applied gradient for all experiments was 100% A (0 to 3 min), followed by 80% A (3 to 40 min). Prior to the experiment, the column was calibrated using nine reference substances with a HSA binding, known from literature, in the range of 13 to 99% (Valko, K.; Nunhuck, S.; Bevan, C.; Abraham, M. H.; Reynolds, D. P. Journal of pharmaceutical sciences 2003, 92, 2236-2248; Yamazaki, K.; Kanaoka, M. Journal of Pharmaceutical sciences 2004, 93, 1480-1494). All substances, including the examined PSMA ligands, were dissolved in a 1:1 mixture (v/v) of isopropanol and a 50 mM aqueous solution of NH4OAc (pH6.9) with a final concentration of 0.5 mg/mL. Non-linear regression was established with the OriginPro 2016G software (Northampton, United States) (FIG. 8).

Data set [5] can be described thus: Apparent molecular weight (MWapp).
In data set [6] the test system is LNCaP tumor-bearing male CB-17 SCID mice. The data set is described as follows: Biodistribution studies 24 h p.i. As to conditions: for Kidneys (24 h) / Tumor (24 h) / T/K-ratio: Table 1; for T/K-ratio: tumor/kidney.
Description: Approximately 3-7 MBq (0.1-0.2 nmol) of the radioactive-labelled PSMA inhibitors were injected into the tail vein of LNCaP tumor-bearing male CB-17 SCID mice and sacrificed after 24 h post injection. Selected organs were removed, weighted and measured in a γ-counter. Results are all decay corrected and given in % injected dose per gram of tissue (% iD/g). Tumor-to-organ ratios are calculated from animals' individual ratios and are given as mean±standard deviation.
For data set [7] the following is noted: Wängler et al. 2010; cited from earlier work.

T1 sequence (Q04609 whole entry): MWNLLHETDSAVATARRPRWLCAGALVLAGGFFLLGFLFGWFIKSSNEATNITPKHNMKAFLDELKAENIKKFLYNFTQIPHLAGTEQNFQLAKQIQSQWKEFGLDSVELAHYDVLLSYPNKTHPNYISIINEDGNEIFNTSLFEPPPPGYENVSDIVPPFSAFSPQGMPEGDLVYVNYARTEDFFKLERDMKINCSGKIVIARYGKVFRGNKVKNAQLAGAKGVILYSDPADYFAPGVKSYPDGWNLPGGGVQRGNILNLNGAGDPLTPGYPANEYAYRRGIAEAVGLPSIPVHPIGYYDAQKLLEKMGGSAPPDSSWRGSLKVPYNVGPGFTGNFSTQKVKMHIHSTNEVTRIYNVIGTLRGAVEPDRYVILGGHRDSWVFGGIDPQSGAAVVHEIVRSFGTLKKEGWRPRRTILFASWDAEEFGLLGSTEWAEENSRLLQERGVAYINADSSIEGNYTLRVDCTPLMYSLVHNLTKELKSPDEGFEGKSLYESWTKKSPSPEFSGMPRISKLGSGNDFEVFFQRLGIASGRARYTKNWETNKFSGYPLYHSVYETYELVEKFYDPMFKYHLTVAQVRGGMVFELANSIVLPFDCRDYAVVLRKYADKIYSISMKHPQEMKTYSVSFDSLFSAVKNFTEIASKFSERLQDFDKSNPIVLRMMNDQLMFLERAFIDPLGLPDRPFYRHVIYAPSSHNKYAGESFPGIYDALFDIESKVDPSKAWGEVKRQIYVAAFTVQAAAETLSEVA
T2 sequence (P02768 25-609): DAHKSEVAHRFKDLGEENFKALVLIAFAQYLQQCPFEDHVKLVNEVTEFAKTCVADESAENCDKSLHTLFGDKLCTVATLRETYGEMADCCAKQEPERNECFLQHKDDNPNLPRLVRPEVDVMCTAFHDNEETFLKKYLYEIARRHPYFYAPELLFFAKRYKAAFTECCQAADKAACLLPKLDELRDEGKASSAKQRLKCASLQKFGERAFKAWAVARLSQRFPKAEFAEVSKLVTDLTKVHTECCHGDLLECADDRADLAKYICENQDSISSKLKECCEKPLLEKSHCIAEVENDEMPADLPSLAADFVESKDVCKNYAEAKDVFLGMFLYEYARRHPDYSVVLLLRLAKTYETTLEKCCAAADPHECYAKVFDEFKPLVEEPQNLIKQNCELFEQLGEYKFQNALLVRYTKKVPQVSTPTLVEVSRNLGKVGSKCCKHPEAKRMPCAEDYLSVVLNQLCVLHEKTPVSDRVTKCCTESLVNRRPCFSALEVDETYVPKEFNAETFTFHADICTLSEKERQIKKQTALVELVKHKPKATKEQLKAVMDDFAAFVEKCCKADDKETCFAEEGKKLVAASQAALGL

Usually IC50 stands for the midpoint of a concentration-inhibition curve. Consider `CC(C)(C)[Si](F)(c1ccc(C(=O)NC[C@@H](NC(=O)[C@@H](CCCNC(N)=O)NC(=O)CC[C@H](C(=O)O)N2CCN(CC(=O)O)CCN(CC(=O)O)CCN(CC(=O)O)CC2)C(=O)NCCCCCC(=O)NCCC[C@@H](NC(=O)CC[C@H](NC(=O)N[C@@H](CCC(=O)O)C(=O)O)C(=O)O)C(=O)O)cc1)C(C)(C)C` [Compound 2C015], for which, in data set [1], the logD7.4 is −3.40 ± 0.10. In data set [2], the IC50 amounted to 3.99 ± 0.74 nM. The compound also gave an Internalization in data set [3] (normalized to reference) of 226 ± 10 % IBA. In data set [4], the “HSA (HPAC)” value is recorded as 95.0%. Also, in data set [5], the MWapp stood at 18.9 kDa. In data set [6] (Table 6), the “In vivo biodistribution (24 h p.i.) blood” value is recorded as 0.0007 ± 0.0005 % iA/g, the “In vivo biodistribution (24 h p.i.) kidney” value was found to be 2.23 ± 1.29 % iA/g and the “In vivo biodistribution (24 h p.i.) tumor” value was 8.98 ± 2.32 % iA/g. Moreover, in data set [6] (mean), the uptake in adrenals is recorded as 0.1013 % iD/g, the uptake in blood came to 0.0007 % iD/g, the uptake in bone turned out to be 0.0223 % iD/g and the uptake in heart was determined as 0.0237 % iD/g. Also, in data set [6] (mean), the uptake in intestine came out at 0.1103 % iD/g, the uptake in kidney turned out to be 2.2339 % iD/g, the uptake in liver is 0.164 % iD/g and the uptake in lung amounted to 0.0468 % iD/g. Moreover, in data set [6] (mean), the uptake in muscle came to 0.0062 % iD/g, the uptake in pancreas is reported as 0.0212 % iD/g, the “uptake in parotid gl.” value came out at 0.0674 % iD/g and the uptake in spleen came to 0.2671 % iD/g. Besides, in data set [6] (mean), the uptake in stomach came out at 0.036 % iD/g, the “uptake in submand. gl.” value was 0.0389 % iD/g and the uptake in tumor is recorded as 8.9821 % iD/g.
In data set [1], `O=C(O)CC[C@H](NC(=O)N[C@@H](CCCCNC(=O)[C@H](Cc1ccc2ccccc2c1)NC(=O)[C@H]1CC[C@H](CNC(=O)CN2CCN(CC(=O)O)CCN(CC(=O)O)CCN(CC(=O)O)CC2)CC1)C(=O)O)C(=O)O` [PSMA-617, reference compound] gave a logD7.4 of −4.10. Moreover, the IC50 in data set [2] was found to be 3.3 ± 0.2 nM. Besides, the Internalization in data set [3] (normalized to ([125I]I-BA)KuE) stood at 203 ± 10 % IBA-KuE. In data set [4], the “HSA (HPAC)” value turned out to be 84.9%. The MWapp in data set [5] amounted to 13.7 kDa. Also, in data set [6], the “Kidneys (24 h)” value turned out to be 9.8 ± 2.7 % iD/g, the “Tumor (24 h)” value was found to be 11.6 ± 2.2 % iD/g and the T/K-ratio was found to be 1.24 ± 0.29.
Regarding `CC(C)(C)[Si](F)(c1ccc(C(=O)NC[C@@H](NC(=O)CC[C@@H](C(=O)O)N2CCN(CC(=O)O)CCN(CC(=O)O)CCN(CC(=O)O)CC2)C(=O)N[C@H](CCCCNC(=O)CCC(=O)NCCC[C@@H](NC(=O)CC[C@H](NC(=O)N[C@@H](CCC(=O)O)C(=O)O)C(=O)O)C(=O)O)C(=O)O)cc1)C(C)(C)C` [rhPSMA-7.3, reference compound], the logD7.4 in data set [1] is −4.12 ± 0.11^. Moreover, the IC50 in data set [2] turned out to be 3.29 ± 1 nM. The same compound displayed an Internalization in data set [3] (normalized to ([125I]I-BA)KuE) of 184 ± 12 % IBA-KuE. In addition, the “HSA (HPAC)” value in data set [4] came out at 98.6%. Further, the MWapp in data set [5] came to 30.4 kDa. Also, in data set [6], the “Kidneys (24 h)” value is listed as 1.4 ± 0.4 % iD/g, the “Tumor (24 h)” value is 7.5 ± 0.9 % iD/g and the T/K-ratio is 5.17.
For the compound “SIFA-Asn(AcNH-β-Glc)-PEG-Tyr^3 -octreotate”, the “log P(ow)” value in data set [7] is 0.96.
Take SIFA-Asn(AcNH-β-Glc)-Tyr^3 -octreotate: the “log P(ow)” value in data set [7] is given as 1.23.

Values taken from patent US20240165281A1, “DUAL MODE RADIOTRACER AND THERAPEUTICS” (Technische Universität München, priority 2021, published 2024).
